Data as given in patent US12606541B2, “PPARg modulators and methods of use” (Eisai R&D Management Co., Ltd., priority 2020, dated 2026).

Experiments:
[1] = system: UM-UC-9 engineered cells; assay: Cell proliferation / short-term viability assay, CellTiter-Glo 144 h; type: cell-based, human; details: Homo sapiens, UM-UC-9, 144 h, read-out: CTGlo 144 h UMUC9.5, G150
In short: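 Viability read by CellTiter-Glo 2.0 luminescence at day 7 versus DMSO-vehicle wells and a T0 plate measured on day 0. Cells: UM-UC-9 engineered assay-ready stocks, 500 cells/well in high-glucose DMEM with 10% FBS, 37° C, 5% CO2.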

[2] = target: T1, His6-TEV-PPARγ-(234-505) (Homo sapiens, UniProt P37231); assay: TR-FRET Assay to Measure Co-R Peptide Recruitment to PPARγ; type: biochemical; details: Co-R peptide (SMRT-ID2) recruitment; top final concentration 20 μM; read-out: TR-FRET i-Ag; AC50
T1 construct: The His6-TEV-PPARγ-(234-505) protein for assay was expressed and purified; TEV cleavage site (N); made in house
T1 sequence (P37231 234-505): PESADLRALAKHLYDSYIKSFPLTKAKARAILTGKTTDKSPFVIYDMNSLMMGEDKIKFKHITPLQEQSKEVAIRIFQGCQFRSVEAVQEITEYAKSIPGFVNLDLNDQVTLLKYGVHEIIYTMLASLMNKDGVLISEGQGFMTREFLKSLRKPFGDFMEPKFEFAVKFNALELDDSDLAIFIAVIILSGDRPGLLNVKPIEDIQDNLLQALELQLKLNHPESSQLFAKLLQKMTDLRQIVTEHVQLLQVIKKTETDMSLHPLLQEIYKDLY
In short: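 Corepressor recruitment is measured by adding terbium-labeled anti-His antibody and FITC SMRT-ID2 peptide, at 5 and 200 nM final, after a 20-minute room-temperature protein–compound incubation. After one further hour, signal is converted to percent response between DMSO and 500 nM T0070907 wells.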

## COc1cc(-c2cc(C(=O)N3CC[C@H](C(=O)NC4CCC5(CCCN5)CC4)CC34CC4)n[nH]2)c(F)cn1 (stereo partly drawn) [Example 348, (S)-4-(5-(5-fluoro-2-methoxypyridin-4-yl)-1H-pyrazole-3-carbonyl)-N-(1-azaspiro[4.5]decan-8-yl)-4-azaspiro[2.5]octane-7-carboxamide]
[1]
  IC50: > 10000 nM
[2]
  AC50: 305 nM

## COc1cc(-c2cc(C(=O)N3CC[C@H](C(=O)NC4CCC5(CCCN5C5COC5)CC4)CC34CC4)n[nH]2)c(F)cn1 (stereo partly drawn) [Example 349, (S)-4-(5-(5-fluoro-2-methoxypyridin-4-yl)-1H-pyrazole-3-carbonyl)-N-(1-(oxetan-3-yl)-1-azaspiro[4.5]decan-8-yl)-4-azaspiro[2.5]octane-7-carboxamide]
[1]
  IC50: 836 nM
[2]
  AC50: 187 nM

## COc1cc(-c2cc(C(=O)N3CC[C@H](C(=O)N[C@H]4CC[C@@](OCCN)(C(F)(F)F)CC4)CC34CC4)n[nH]2)c(F)cn1 [Example 350, (S)—N-((1r,4S)-4-(2-aminoethoxy)-4-(trifluoromethyl)cyclohexyl)-4-(5-(5-fluoro-2-methoxypyridin-4-yl)-1H-pyrazole-3-carbonyl)-4-azaspiro[2.5]octane-7-carboxamide]
[1]
  IC50: 176 nM
[2]
  AC50: 5.3 nM

## COc1cc(-c2cc(C(=O)N3CC[C@H](C(=O)NC4CCC5(CCCN5CC(C)(F)F)CC4)CC34CC4)n[nH]2)c(F)cn1 (stereo partly drawn) [Example 351, (S)—N-(1-(2,2-difluoropropyl)-1-azaspiro[4.5]decan-8-yl)-4-(5-(5-fluoro-2-methoxypyridin-4-yl)-1H-pyrazole-3-carbonyl)-41-azaspiro[2.5]octane-7-carboxamide]
[1]
  IC50: 450 nM
[2]
  AC50: 256 nM

## COc1cc(-c2cc(C(=O)N3CC[C@H](C(=O)N[C@H]4CC[C@@](OC[C@H](C)N)(C(F)(F)F)CC4)CC34CC4)n[nH]2)c(F)cn1 [Example 352, (S)—N-((1548)-4-((S)-2-aminopropoxy)-4-(trifluoromethyl)cyclohexyl)-4-(5-(5-fluoro-2-methoxypyridin-4-yl)-1H-pyrazole-3-carbonyl)-4-azaspiro[2.5]octane-7-carboxamide]
[1]
  IC50: 134 nM
[2]
  AC50: 7.7 nM

## COc1cc(-c2cc(C(=O)N3CC[C@H](C(=O)N[C@H]4CC[C@@](OC[C@H](C)O)(C(F)(F)F)CC4)CC34CC4)n[nH]2)c(F)cn1 [Example 353, (S)-4-(5-(5-fluoro-2-methoxypyridin-4-yl)-1H-pyrazole-3-carbonyl)-N-((1S,4S)-4-((S)-2-hydroxypropoxy)-4-(trifluoromethyl)cyclohexyl)-4-azaspiro[2.5]octane-7-carboxamide]
[1]
  IC50: 6 nM
[2]
  AC50: 6.6 nM

## COc1cc(-c2cc(C(=O)N3CC[C@H](C(=O)NC4CC5CCC(C4)O5)CC34CC4)n[nH]2)c(F)cn1 (stereo partly drawn) [Example 354, (7S)—N-(8-oxabicyclo[3.2.1]octan-3-yl)-4-(5-(5-fluoro-2-methoxypyridin-4-yl)-1H-pyrazole-3-carbonyl)-4-azaspiro[2.5]octane-7-carboxamide]
[1]
  IC50: 28.6 nM
[2]
  AC50: 24.1 nM

## COc1cc(-c2cc(C(=O)N3CC[C@H](C(=O)NCc4ncccc4Cl)CC34CC4)n[nH]2)c(F)cn1 [Example 358, (S)—N-((3-chloropyridin-2-yl)methyl)-4-(5-(5-fluoro-2-methoxypyridin-4-yl)-1H-pyrazole-3-carbonyl)-4-azaspiro[2.5]octane-7-carboxamide]
[1]
  IC50: 3.4 nM
[2]
  AC50: 5.1 nM

## COc1cc(-c2cc(C(=O)N3CC[C@H](C(=O)NCc4ncccc4C)CC34CC4)n[nH]2)c(F)cn1 [Example 359, (S)-4-(5-(5-fluoro-2-methoxypyridin-4-yl)-1H-pyrazole-3-carbonyl)-N-((3-methylpyridin-2-yl)methyl)-4-azaspiro[2.5]octane-7-carboxamide]
[1]
  IC50: 19.9 nM
[2]
  AC50: 8 nM

## COc1cc(-c2cc(C(=O)N3CC[C@H](C(=O)NCc4ncc(F)cc4C)CC34CC4)n[nH]2)c(F)cn1 [Example 361, (S)-4-(5-(5-fluoro-2-methoxypyridin-4-yl)-1H-pyrazole-3-carbonyl)-N-((5-fluoro-3-methylpyridin-2-yl)methyl)-4-azaspiro[2,5]octane-7-carboxamide]
[1]
  IC50: 17.8 nM
[2]
  AC50: 10.2 nM

## COc1cc(-c2cc(C(=O)N3CC[C@H](C(=O)NCc4ncc(F)cc4Cl)CC34CC4)n[nH]2)c(F)cn1 [Example 362, (S)—N-((3-chloro-5-fluoropyridin-2-yl)methyl)-4-(5-(5-fluoro-2-methoxypyridin-4-yl)-1H-pyrazole-3-carbonyl)-4-azaspiro[2.5]octane-7-carboxamide]
[1]
  IC50: 8.7 nM
[2]
  AC50: 3.7 nM

## COc1cc(-c2cc(C(=O)N3CC[C@H](C(=O)NCc4ncc(F)cc4C(F)(F)F)CC34CC4)n[nH]2)c(F)cn1 [Example 363, (S)-4-(5-(5-fluoro-2-methoxypyridin-4-yl)-1H-pyrazole-3-carbonyl)-N-((5-fluoro-3-(trifluoromethyl)pyridin-2-yl)methyl)-4-azaspiro[2.5]octane-7-carboxamide]
[1]
  IC50: 3.5 nM
[2]
  AC50: 6 nM

## COc1cc(-c2cc(C(=O)N3CC[C@H](C(=O)NCc4ncc(C(C)(C)O)cc4Cl)CC34CC4)n[nH]2)c(F)cn1 [Example 364, (S)—N-((3-chloro-5-(2-hydroxypropan-2-yl)pyridin-2-yl)methyl)-4-(5-(5-fluoro-2-methoxypyridin-4-yl)-1H-pyrazole-3-carbonyl)-4-azaspiro[2.5]octane-7-carboxamide]
[1]
  IC50: 56.2 nM
[2]
  AC50: 13.1 nM

## COc1cc(-c2cc(C(=O)N3CC[C@H](C(=O)NCC45CC(C(F)(F)F)(CO4)C5)CC34CC4)n[nH]2)c(F)cn1 [Example 365, (S)-4-(5-(5-fluoro-2-methoxypyridin-4-yl)-1H-pyrazole-3-carbonyl)-N-((4-(trifluoromethyl)-2-oxabicyclo[2.1.1]hexan-1-yl)methyl)-4-azaspiro[2.5]octane-7-carboxamide]
[1]
  IC50: 21.9 nM
[2]
  AC50: 10 nM

## COc1cc(-c2cc(C(=O)N3CC[C@H](C(=O)NCc4cn5c(n4)COCC5)CC34CC4)n[nH]2)c(F)cn1 [Example 371, (S)—N-((5,6-dihydro-8H-imidazo[2,1-c][1,4]oxazin-2-yl)methyl)-4-(5-(5-fluoro-2-methoxypyridin-4-yl)-1H-pyrazole-3-carbonyl)-4-azaspiro[2.5]octane-7-carboxamide]
[1]
  IC50: 338 nM
[2]
  AC50: 36.4 nM

## COc1cc(-c2cc(C(=O)N3CC[C@H](C(=O)Nc4cnn5ccc(C)nc45)CC34CC4)n[nH]2)c(F)cn1 [Example 381, (S)-4-(5-(5-fluoro-2-methoxypyridin-4-yl)-1H-pyrazole-3-carbonyl)-N-(5-methylpyrazolo[1,5-a]pyrimidin-3-yl)-4-azaspiro[2.5]octane-7-carboxamide]
[1]
  IC50: 5.8 nM
[2]
  AC50: 12.3 nM

## COc1cc(-c2cc(C(=O)N3[C@@H]4CC[C@H]3C[C@H](C(=O)NCc3ncc(F)cc3Cl)C4)n[nH]2)c(F)cn1 [Example 384, (1R,3s,5S)—N-((3-chloro-5-fluoropyridin-2-yl)methyl)-8-(5-(5-fluoro-2-methoxypyridin-4-yl)-1H-pyrazole-3-carbonyl)-8-azabicyclo[3.2.1]octane-3-carboxamide]
[1]
  IC50: 82.1 nM
[2]
  AC50: 15.2 nM

## COc1cc(-c2cc(C(=O)N3CC[C@H](C(=O)NCc4nnccc4C)CC34CC4)n[nH]2)c(F)cn1 [Example 386, (S)-4-(5-(5-fluoro-2-methoxypyridin-4-yl)-1H-pyrazole-3-carbonyl)-N-((4-methylpyridazin-3-yl)methyl)-4-azaspiro[2.5]octane-7-carboxamide]
[1]
  IC50: 231 nM
[2]
  AC50: 181 nM

## COc1cc(-c2cc(C(=O)N3CC[C@H](C(=O)NCc4nc(C)ncc4Cl)CC34CC4)n[nH]2)c(F)cn1 [Example 387, (S)—N-((5-chloro-2-methylpyrimidin-4-yl)methyl)-4-(5-(5-fluoro-2-methoxypyridin-4-yl)-1H-pyrazole-3-carbonyl)-4-azaspiro[2,5]octane-7-carboxamide]
[1]
  IC50: 22.5 nM
[2]
  AC50: 14.4 nM

## COc1cc(-c2cc(C(=O)N3CC[C@H](C(=O)NCc4nccnc4Cl)CC34CC4)n[nH]2)c(F)cn1 [Example 388, (S)—N-((3-chloropyrazin-2-yl)methyl)-4-(5-(5-fluoro-2-methoxypyridin-4-yl)-1H-pyrazole-3-carbonyl)-4-azaspiro[2.5]octane-7-carboxamide]
[1]
  IC50: 17.6 nM
[2]
  AC50: 11.4 nM

## COc1cc(-c2cc(C(=O)N3CC[C@H](C(=O)NCc4ncc(F)cc4OC)CC34CC4)n[nH]2)c(F)cn1 [Example 389, (S)-4-(5-(5-fluoro-2-methoxypyridin-4-yl)-1H-pyrazole-3-carbonyl)-N-((5-fluoro-3-methoxypyridin-2-yl)methyl)-4-azaspiro[2.5]octane-7-carboxamide]
[1]
  IC50: 13 nM
[2]
  AC50: 10.3 nM

## COc1cc(-c2cc(C(=O)N3CC[C@H](C(=O)NCc4ncc(C#N)cc4Cl)CC34CC4)n[nH]2)c(F)cn1 [Example 391, (S)—N-((3-chloro-5-cyanopyridin-2-yl)methyl)-4-(5-(5-fluoro-2-methoxypyridin-4-yl)-1H-pyrazole-3-carbonyl)-4-azaspiro[2.5]octane-7-carboxamide]
[1]
  IC50: 81.3 nM
[2]
  AC50: 19.5 nM
